Test results as given in PubChem BioAssay (NCI).
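How tested: cells in 96-well plates exposed to compound for 48 hours at five concentrations. GI50 is the concentration that inhibits growth by half. TGI marks complete inhibition of growth.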

Tests used:
Test in all cases: DTP human tumour cell line panel, 48 h
T-47D breast = system: T-47D breast
OVCAR-8 ovarian = system: OVCAR-8 ovarian
EKVX NSCLC = system: EKVX NSCLC
IGROV1 ovarian = system: IGROV1 ovarian
NCI-H23 lung = system: NCI-H23 lung
HT29 colon = system: HT29 colon
SK-MEL-28 melanoma = system: SK-MEL-28 melanoma
ACHN renal = system: ACHN renal
A549 NSCLC = system: A549 NSCLC
SW-620 colon = system: SW-620 colon
SR leukemia = system: SR leukemia
DU-145 prostate = system: DU-145 prostate
OVCAR-4 ovarian = system: OVCAR-4 ovarian
SK-MEL-5 melanoma = system: SK-MEL-5 melanoma
CAKI-1 renal = system: CAKI-1 renal
HL-60(TB) leukemia = system: HL-60(TB) leukemia
OVCAR-5 ovarian = system: OVCAR-5 ovarian
MOLT-4 leukemia = system: MOLT-4 leukemia
MDA-MB-231 breast = system: MDA-MB-231 breast
OVCAR-3 ovarian = system: OVCAR-3 ovarian
SK-OV-3 ovarian = system: SK-OV-3 ovarian
CCRF-CEM leukemia = system: CCRF-CEM leukemia
SNB-75 CNS = system: SNB-75 CNS
UO-31 renal = system: UO-31 renal
A498 renal = system: A498 renal
BT-549 breast = system: BT-549 breast
MDA-MB-435 = system: MDA-MB-435
RPMI-8226 leukemia = system: RPMI-8226 leukemia
NCI-H226 lung = system: NCI-H226 lung
UACC-257 melanoma = system: UACC-257 melanoma
SN12C renal = system: SN12C renal
SF-539 CNS = system: SF-539 CNS
HOP-62 NSCLC = system: HOP-62 NSCLC
NCI/ADR-RES ovarian = system: NCI/ADR-RES ovarian
K-562 leukemia = system: K-562 leukemia
PC-3 prostate = system: PC-3 prostate
TK-10 renal = system: TK-10 renal
HCT-15 colon = system: HCT-15 colon
MCF7 breast = system: MCF7 breast
786-0 renal = system: 786-0 renal
UACC-62 melanoma = system: UACC-62 melanoma
MALME-3M melanoma = system: MALME-3M melanoma
HCT-116 colon = system: HCT-116 colon
SNB-19 CNS = system: SNB-19 CNS
COLO 205 colon = system: COLO 205 colon
SF-268 CNS = system: SF-268 CNS
M14 melanoma = system: M14 melanoma
NCI-H522 lung = system: NCI-H522 lung
U251 CNS = system: U251 CNS
HS 578T breast = system: HS 578T breast
LOX IMVI melanoma = system: LOX IMVI melanoma
RXF 393 renal = system: RXF 393 renal
HOP-92 NSCLC = system: HOP-92 NSCLC
KM12 colon = system: KM12 colon
NCI-H460 lung = system: NCI-H460 lung
SF-295 CNS = system: SF-295 CNS
HCC-2998 colon = system: HCC-2998 colon
SK-MEL-2 melanoma = system: SK-MEL-2 melanoma

COc1cc2nc(Cl)nc(Nc3cccc(C4=Nc5c(N)nc(N)nc5NC(c5ccc(Cl)cc5)C4)c3)c2cc1OC (configuration not stated)
GI50 (T-47D breast): 2.02 µM | TGI (T-47D breast): 4.61 µM | GI50 (OVCAR-8 ovarian): 2.35 µM | TGI (OVCAR-8 ovarian): 5.99 µM | GI50 (EKVX NSCLC): 2.44 µM | TGI (EKVX NSCLC): 9.17 µM | GI50 (IGROV1 ovarian): 2.9 µM | TGI (IGROV1 ovarian): 10.9 µM | GI50 (NCI-H23 lung): 2.69 µM | TGI (NCI-H23 lung): 8.4 µM | GI50 (HT29 colon): 2.05 µM | TGI (HT29 colon): 4.53 µM | GI50 (SK-MEL-28 melanoma): 1.66 µM | TGI (SK-MEL-28 melanoma): 3.1 µM | GI50 (ACHN renal): 2.15 µM | TGI (ACHN renal): 4.87 µM | GI50 (A549 NSCLC): 3.14 µM | TGI (A549 NSCLC): 16.1 µM | GI50 (SW-620 colon): 1.85 µM | TGI (SW-620 colon): 3.79 µM | GI50 (SR leukemia): 1.91 µM | TGI (SR leukemia): 5.33 µM | GI50 (DU-145 prostate): 2.07 µM | TGI (DU-145 prostate): 4.84 µM | GI50 (OVCAR-4 ovarian): 2 µM | TGI (OVCAR-4 ovarian): 4.81 µM | GI50 (SK-MEL-5 melanoma): 1.68 µM | TGI (SK-MEL-5 melanoma): 3.08 µM | GI50 (CAKI-1 renal): 1.99 µM | TGI (CAKI-1 renal): 4.49 µM | GI50 (HL-60(TB) leukemia): 1.79 µM | TGI (HL-60(TB) leukemia): 4.18 µM | GI50 (OVCAR-5 ovarian): 2.12 µM | TGI (OVCAR-5 ovarian): 5.25 µM | GI50 (MOLT-4 leukemia): 1.75 µM | TGI (MOLT-4 leukemia): 5.1 µM | GI50 (MDA-MB-231 breast): 1.63 µM | TGI (MDA-MB-231 breast): 3.29 µM | GI50 (OVCAR-3 ovarian): 2.04 µM | TGI (OVCAR-3 ovarian): 4.2 µM | GI50 (SK-OV-3 ovarian): 21.8 µM | TGI (SK-OV-3 ovarian): 48 µM | GI50 (CCRF-CEM leukemia): 1.59 µM | TGI (CCRF-CEM leukemia): 5.3 µM | GI50 (SNB-75 CNS): 2.39 µM | TGI (SNB-75 CNS): 14.3 µM | GI50 (UO-31 renal): 2.48 µM | TGI (UO-31 renal): 8.89 µM | GI50 (A498 renal): 10.5 µM | TGI (A498 renal): 26.9 µM | GI50 (BT-549 breast): 7.93 µM | TGI (BT-549 breast): 38 µM | GI50 (MDA-MB-435): 1.64 µM | TGI (MDA-MB-435): 3.07 µM | GI50 (RPMI-8226 leukemia): 1.97 µM | TGI (RPMI-8226 leukemia): 4.84 µM | GI50 (NCI-H226 lung): 14.9 µM | TGI (NCI-H226 lung): 50.1 µM | GI50 (UACC-257 melanoma): 2.43 µM | TGI (UACC-257 melanoma): 6.22 µM | GI50 (SN12C renal): 2.68 µM | TGI (SN12C renal): 8.1 µM | GI50 (SF-539 CNS): 1.72 µM | TGI (SF-539 CNS): 3.13 µM | GI50 (HOP-62 NSCLC): 5.24 µM | TGI (HOP-62 NSCLC): 32.5 µM | GI50 (NCI/ADR-RES ovarian): 4.16 µM | TGI (NCI/ADR-RES ovarian): 92 µM | GI50 (K-562 leukemia): 1.91 µM | TGI (K-562 leukemia): 4.16 µM | GI50 (PC-3 prostate): 3.97 µM | TGI (PC-3 prostate): 37.9 µM | GI50 (TK-10 renal): 2.62 µM | TGI (TK-10 renal): 6.87 µM | GI50 (HCT-15 colon): 2.07 µM | TGI (HCT-15 colon): 4.8 µM

COc1cc(OC)cc(C(=O)Nc2cccc(C#Cc3cccc4[nH]nc(N)c34)c2)c1
GI50 (T-47D breast): 1.21 µM | TGI (T-47D breast): 13.8 µM | GI50 (OVCAR-8 ovarian): 2.36 µM | TGI (OVCAR-8 ovarian): 13.7 µM | GI50 (EKVX NSCLC): 2.92 µM | TGI (EKVX NSCLC): > 38.2 µM | GI50 (MCF7 breast): 0.469 µM | TGI (MCF7 breast): 12.3 µM | GI50 (786-0 renal): 2.24 µM | TGI (786-0 renal): 11.3 µM | GI50 (IGROV1 ovarian): 1.13 µM | TGI (IGROV1 ovarian): 11.1 µM | GI50 (NCI-H23 lung): 2.14 µM | TGI (NCI-H23 lung): 11.7 µM | GI50 (UACC-62 melanoma): 0.478 µM | TGI (UACC-62 melanoma): 6.49 µM | GI50 (HT29 colon): 0.641 µM | TGI (HT29 colon): 5.37 µM | GI50 (SK-MEL-28 melanoma): 1.76 µM | TGI (SK-MEL-28 melanoma): 15.7 µM | GI50 (ACHN renal): 2.64 µM | TGI (ACHN renal): 14.7 µM | GI50 (A549 NSCLC): 1.43 µM | TGI (A549 NSCLC): 18.3 µM | GI50 (MALME-3M melanoma): 0.782 µM | TGI (MALME-3M melanoma): 13.1 µM | GI50 (SW-620 colon): 0.689 µM | TGI (SW-620 colon): > 35 µM | GI50 (SR leukemia): 0.133 µM | TGI (SR leukemia): 5.48 µM | GI50 (HCT-116 colon): 0.548 µM | TGI (HCT-116 colon): 10.7 µM | GI50 (DU-145 prostate): 2.93 µM | TGI (DU-145 prostate): > 39 µM | GI50 (SNB-19 CNS): 2.46 µM | TGI (SNB-19 CNS): 30.9 µM | GI50 (COLO 205 colon): 1.16 µM | TGI (COLO 205 colon): 3.63 µM | GI50 (OVCAR-4 ovarian): 3.51 µM | TGI (OVCAR-4 ovarian): 23.6 µM | GI50 (SK-MEL-5 melanoma): 1.01 µM | TGI (SK-MEL-5 melanoma): 3.29 µM | GI50 (CAKI-1 renal): 1.64 µM | TGI (CAKI-1 renal): 7.18 µM | GI50 (HL-60(TB) leukemia): 0.441 µM | TGI (HL-60(TB) leukemia): 2.51 µM | GI50 (OVCAR-5 ovarian): 2.97 µM | TGI (OVCAR-5 ovarian): 45.5 µM | GI50 (SF-268 CNS): 2.06 µM | TGI (SF-268 CNS): 11 µM | GI50 (MOLT-4 leukemia): 0.931 µM | TGI (MOLT-4 leukemia): 17.8 µM | GI50 (MDA-MB-231 breast): 1.28 µM | TGI (MDA-MB-231 breast): 5.14 µM | GI50 (OVCAR-3 ovarian): 0.943 µM | TGI (OVCAR-3 ovarian): 11.8 µM | GI50 (M14 melanoma): 0.535 µM | TGI (M14 melanoma): 4.55 µM | GI50 (SK-OV-3 ovarian): 3.68 µM | TGI (SK-OV-3 ovarian): 22.6 µM | GI50 (NCI-H522 lung): 0.485 µM | TGI (NCI-H522 lung): 2.7 µM | GI50 (CCRF-CEM leukemia): 0.808 µM | TGI (CCRF-CEM leukemia): > 56 µM | GI50 (SNB-75 CNS): 0.306 µM | TGI (SNB-75 CNS): 2.71 µM | GI50 (U251 CNS): 0.821 µM | TGI (U251 CNS): 15 µM | GI50 (HS 578T breast): 1.25 µM | TGI (HS 578T breast): 5.43 µM | GI50 (UO-31 renal): 2.99 µM | TGI (UO-31 renal): 12.1 µM | GI50 (A498 renal): 4.5 µM | TGI (A498 renal): 11.1 µM | GI50 (BT-549 breast): 1.32 µM | TGI (BT-549 breast): 6.32 µM | GI50 (LOX IMVI melanoma): 0.759 µM | TGI (LOX IMVI melanoma): 7.18 µM | GI50 (MDA-MB-435): 0.201 µM | TGI (MDA-MB-435): 0.49 µM | GI50 (RPMI-8226 leukemia): 1.77 µM | TGI (RPMI-8226 leukemia): 17.8 µM | GI50 (RXF 393 renal): 0.584 µM | TGI (RXF 393 renal): 3.03 µM | GI50 (NCI-H226 lung): 1.93 µM | TGI (NCI-H226 lung): 9.03 µM | GI50 (HOP-92 NSCLC): 2.3 µM | TGI (HOP-92 NSCLC): 11.7 µM | GI50 (UACC-257 melanoma): 2.04 µM | TGI (UACC-257 melanoma): 11.8 µM | GI50 (SN12C renal): 2.7 µM | TGI (SN12C renal): 13.9 µM | GI50 (SF-539 CNS): 0.621 µM | TGI (SF-539 CNS): 2.19 µM | GI50 (KM12 colon): 0.957 µM | TGI (KM12 colon): 10.4 µM | GI50 (NCI-H460 lung): 0.586 µM | TGI (NCI-H460 lung): 10.8 µM | GI50 (SF-295 CNS): 1.13 µM | TGI (SF-295 CNS): 5.17 µM | GI50 (HOP-62 NSCLC): 1.71 µM | TGI (HOP-62 NSCLC): 22.5 µM | GI50 (NCI/ADR-RES ovarian): 1.66 µM | TGI (NCI/ADR-RES ovarian): 8.54 µM | GI50 (K-562 leukemia): 0.331 µM | TGI (K-562 leukemia): > 100 µM | GI50 (PC-3 prostate): 2.05 µM | TGI (PC-3 prostate): > 41.2 µM | GI50 (HCC-2998 colon): 1.98 µM | TGI (HCC-2998 colon): 4.92 µM | GI50 (SK-MEL-2 melanoma): 0.428 µM | TGI (SK-MEL-2 melanoma): 1.96 µM | GI50 (TK-10 renal): 4.29 µM | TGI (TK-10 renal): 12.4 µM | GI50 (HCT-15 colon): 0.492 µM | TGI (HCT-15 colon): 12.5 µM
